Measurements from publication PMC5515982, “Hair analysis for the biomonitoring of pesticide exposure: comparison with blood and urine in a rat model” (Archives of Toxicology, 2016).

Columns and labels:
Type in all cases: in vivo, rat
[1] = Concentration of pesticides and metabolites in hair of rats after 90-day gavage exposure to a pesticide mixture; conditions: for Slope (linear fit), concentration in hair versus level of exposure: exposure expressed as mg/kg per day, concentration as pg/mg, detected values only
Method: (§1) Eight rats were randomly assigned to each of the experimental groups. A low-calorie water gel that contained the pesticides was administered via gavage to these rats three times per week for 90 days. The doses of the pesticides mixture used for exposure were 4, 10, 20, 40, 100, 200, and 400 µg/kg of body weight. The exposure range was set as follows: The lowest dose was the lowest level allowing the detection of pesticides in hair after a 90-day exposure, based on preliminary experiments not detailed here. Testing lower levels would not have been relevant because some compounds would not be detected anymore (analytical limitation). In addition, for some other compounds, no differences were detected in the current experiment between the lowest level of exposure and the background exposure of the controls. The highest dose was set according to toxicity of compounds, which corresponded to 1/20 of the lowest LD50 (carbofuran). The animals were weighed before each administration in order to adapt the amount of pesticide-containing mixture to the animals’ weight.
(§2) The animals were shaved before the experiment began to ensure that the hair collected at the end of the study accurately reflected the 90-day period of exposure. White and black hairs were collected separately, placed in aluminum foil, and stored at −20 °C until analysis. Blood was collected in EDTA tube from the tail vein, 3 h after oral administration on Day 90. Each sampling (500–750 µL) was immediately centrifuged at 5000×g for 3 min at room temperature, and plasma was separated and stored at −80 °C before analysis. For urine collection, the rats were placed in individual metabolic cages (Type 304 stainless steel, Techniplast, Zwaag, Netherlands) immediately after gavage for 24 h (from Day 88 to Day 89). The urine was collected in refrigerated tubes over a 24-h period and was weighed before storage at −20 °C.
(§3) Depending on the compounds, only parent pesticides, only metabolites, or both parent and metabolites were analyzed in the biological matrices. The chemicals were analyzed as previously described (Chata et al. [2016]; Hardy et al. [2015]). Despite the different nature of the biological matrices analyzed (liquid vs. solid), method protocols were developed to ensure similarity so they could be reliably compared to the information obtained from each matrix, thereby ensuring that differences were not likely attributable to analytical bias. […] Because analytical background noise was absent from the chromatograms because tandem mass spectrometry was used, the approaches based on background noise for determining the limit of detection (LOD) were not applicable. The LOD was therefore determined as the lowest concentration that was detected in the samples analyzed during this study. Selectivity was ensured by analyte retention time and by the quantification transition to confirmation transition ratio that had to be lower than the 20% difference from the ratio obtained with standard compounds. The LOD ranged from 0.02 pg/mg for β-endosulfan to 2.7 pg/mg for dichlorodiphenyltrichloroethane (p,p′-DDT) in hair, from 0.2 pg/mL for trifluralin to 13.6 ng/mL for 2-isopropoxyphenol (2-IPP) in urine, and from 2.4 pg/mL for β-endosulfan to 679 pg/mL for p,p′-DDT in plasma. Because the analysis of parent pesticides and metabolites was conducted on the same hair sample, the addition of parent organophosphate isotope-labeled analog standards was not possible because their degradation into non-labeled dialkyl phosphate (DAP) during the analytical procedure would have hindered the analysis of DAP due to exposure. In hair, only organophosphate metabolites (not parents) were therefore quantified, and only qualitative results were obtained for parents.
(§4) The association between the level of exposure and the analyte concentration in the matrix (i.e., hair, urine, and plasma) was assessed by the Pearson product-moment correlation coefficient (R Pearson). […]

[2] = Concentration of pesticides and metabolites in 24-h urine of rats after 90-day gavage exposure to a pesticide mixture; conditions: for Slope (linear fit), concentration in urine versus level of exposure: exposure expressed as mg/kg per day, concentration as ng/mL, detected values only; for Concentration range in urine (detection): ND = not detected, whatever the level of exposure
Method: as §1, §2, §3, §4

[3] = Concentration of pesticides and metabolites in plasma of rats after 90-day gavage exposure to a pesticide mixture; conditions: for Slope (linear fit), concentration in plasma versus level of exposure: exposure expressed as mg/kg per day, concentration as ng/mL, detected values only; for Concentration range in plasma (detection): ND = not detected, whatever the level of exposure
Method: as §1, §2, §3, §4

[4] = Influence of hair pigmentation: concentration in white hair versus pigmented hair; conditions: slope close to 1 = poor influence of pigmentation
Method: as §2
The influence of hair pigmentation on pesticide incorporation was assessed by comparing the concentration detected in white hair versus pigmented hair which were collected and analyzed separately from each animal. […] For the majority of the chemicals tested during the current study, pigmentation seemed to have a very limited effect on the concentration in hair, and only few compounds seemed to be pigmentation sensitive.

CC(C)Oc1ccccc1O [2-IPP, 2-isopropoxyphenol]
Slope (linear fit), concentration in hair versus level of exposure [1]: 26.3
Slope (linear fit), concentration in urine versus level of exposure [2]: 1.0 E + 06
Slope (linear fit), concentration in plasma versus level of exposure [3]: 10.4
Slope, concentration in white hair versus pigmented hair [4]: 0.692

O=C(O)c1cccc(Oc2ccccc2)c1 [3-PBA, 3-phenoxybenzoic acid]
Slope (linear fit), concentration in hair versus level of exposure [1]: 7.08
Slope (linear fit), concentration in urine versus level of exposure [2]: 1.5 E + 05
Slope (linear fit), concentration in plasma versus level of exposure [3]: 422
Slope, concentration in white hair versus pigmented hair [4]: 1.070

CC1(C)Cc2cccc(O)c2O1 [Carbofuran phenol]
Slope (linear fit), concentration in hair versus level of exposure [1]: 35.10
Slope (linear fit), concentration in urine versus level of exposure [2]: 1.0 E + 06
Slope (linear fit), concentration in plasma versus level of exposure [3]: 1.73
Slope, concentration in white hair versus pigmented hair [4]: 1.109

CC1(C)C(C=C(Cl)Cl)C1C(=O)O (centres unmarked) [Cl2CA, 3-(2,2-dichlorovinyl)-2,2-dimethylcyclopropane-1-carboxylic acid]
Slope (linear fit), concentration in hair versus level of exposure [1]: 49.20
Slope (linear fit), concentration in urine versus level of exposure [2]: 1.0 E + 06
Slope (linear fit), concentration in plasma versus level of exposure [3]: 139
Slope, concentration in white hair versus pigmented hair [4]: 0.498

CC1(C)C(C=C(Cl)C(F)(F)F)C1C(=O)O (centres unmarked) [ClCF3CA, 3-(2-chloro-3,3,3-trifluoro-1-propenyl)-2,2-dimethylcyclopropane carboxylic acid]
Slope (linear fit), concentration in hair versus level of exposure [1]: 5.22
Slope (linear fit), concentration in urine versus level of exposure [2]: 1.6 E + 05
Slope (linear fit), concentration in plasma versus level of exposure [3]: 9.79
Slope, concentration in white hair versus pigmented hair [4]: 0.220

CC1(C)C(C=C(Cl)Cl)C1C(=O)OC(C#N)c1cccc(Oc2ccccc2)c1 (centres unmarked) [Cypermethrin]
Exposure level from which detected in hair [1]: 200 µg/kg
Exposure level from which detected in plasma [3]: 10 µg/kg
Slope (linear fit), concentration in plasma versus level of exposure [3]: 10.1
Slope, concentration in white hair versus pigmented hair [4]: 0.495

CCOP(O)(=S)OCC [DETP, diethylthiophosphate]
Slope (linear fit), concentration in hair versus level of exposure [1]: 10.47
Slope (linear fit), concentration in urine versus level of exposure [2]: 9.9 E + 05
Slope (linear fit), concentration in plasma versus level of exposure [3]: 3.26
Slope, concentration in white hair versus pigmented hair [4]: 0.608

CCOP(=S)(OCC)Oc1cc(C)nc(C(C)C)n1 [Diazinon]
Concentration range in plasma (detection) [3]: not detected

ClC1=C(Cl)[C@]2(Cl)[C@@H]3[C@@H]4C[C@@H]([C@H]5O[C@@H]45)[C@@H]3[C@@]1(Cl)C2(Cl)Cl [Dieldrin]
Slope (linear fit), concentration in hair versus level of exposure [1]: 427.8
Slope (linear fit), concentration in urine versus level of exposure [2]: 2 069
Slope (linear fit), concentration in plasma versus level of exposure [3]: 305
Slope, concentration in white hair versus pigmented hair [4]: 1.000

O=C(Nc1ccc(F)cc1F)c1cccnc1Oc1cccc(C(F)(F)F)c1 [Diflufenican]
Slope (linear fit), concentration in hair versus level of exposure [1]: 35.94
Exposure level from which detected in urine [2]: 20 µg/kg
Slope (linear fit), concentration in urine versus level of exposure [2]: 99
Slope (linear fit), concentration in plasma versus level of exposure [3]: 15.2
Slope, concentration in white hair versus pigmented hair [4]: 0.937

N#Cc1nn(-c2c(Cl)cc(C(F)(F)F)cc2Cl)c(N)c1S(=O)(=O)C(F)(F)F [Fipronil sulfone]
Slope (linear fit), concentration in hair versus level of exposure [1]: 772
Slope (linear fit), concentration in urine versus level of exposure [2]: 10 650
Slope (linear fit), concentration in plasma versus level of exposure [3]: 976
Slope, concentration in white hair versus pigmented hair [4]: 1.114

N#Cc1nn(-c2c(Cl)cc(C(F)(F)F)cc2Cl)c(N)c1[S+]([O-])C(F)(F)F (centres unmarked) [Fipronil]
Slope (linear fit), concentration in hair versus level of exposure [1]: 31.5
Exposure level from which detected in urine [2]: 10 µg/kg
Slope (linear fit), concentration in urine versus level of exposure [2]: 2 016
Slope, concentration in white hair versus pigmented hair [4]: 1.017

CC(C)Oc1cc(-n2nc(C(C)(C)C)oc2=O)c(Cl)cc1Cl [Oxadiazon]
Slope (linear fit), concentration in hair versus level of exposure [1]: 11.45
Concentration range in urine (detection) [2]: not detected
Slope (linear fit), concentration in plasma versus level of exposure [3]: 38.5
Slope, concentration in white hair versus pigmented hair [4]: 0.860

Oc1c(Cl)c(Cl)c(Cl)c(Cl)c1Cl [Pentachlorophenol]
Slope (linear fit), concentration in hair versus level of exposure [1]: 169.0
Slope (linear fit), concentration in urine versus level of exposure [2]: 82 841
Slope (linear fit), concentration in plasma versus level of exposure [3]: 2039
Slope, concentration in white hair versus pigmented hair [4]: 0.705

CC1(C)C(C=C(Cl)Cl)C1C(=O)OCc1cccc(Oc2ccccc2)c1 (centres unmarked) [Permethrin]
Exposure level from which detected in plasma [3]: 100 µg/kg
Slope (linear fit), concentration in plasma versus level of exposure [3]: 1.04

CCCC1COC(Cn2cncn2)(c2ccc(Cl)cc2Cl)O1 (centres unmarked) [Propiconazole]
Slope (linear fit), concentration in hair versus level of exposure [1]: 6.47
Concentration range in urine (detection) [2]: not detected
Concentration range in plasma (detection) [3]: not detected
Slope, concentration in white hair versus pigmented hair [4]: 0.825

Oc1nc(Cl)c(Cl)cc1Cl [TCPy, 3,5,6-trichloro-2-pyridinol]
Slope (linear fit), concentration in hair versus level of exposure [1]: 85.6
Slope (linear fit), concentration in urine versus level of exposure [2]: 2.5 E + 06
Slope (linear fit), concentration in plasma versus level of exposure [3]: 109
Slope, concentration in white hair versus pigmented hair [4]: 0.435

CCCN(CCC)c1c([N+](=O)[O-])cc(C(F)(F)F)cc1[N+](=O)[O-] [Trifluralin]
Slope (linear fit), concentration in hair versus level of exposure [1]: 1.107
Slope (linear fit), concentration in hair versus level of exposure ([1]; listed as trifluralin): 1.11
Slope (linear fit), concentration in urine versus level of exposure [2]: 4
Slope (linear fit), concentration in plasma versus level of exposure [3]: 1.57
Slope, concentration in white hair versus pigmented hair [4]: 0.688

Clc1ccc(C(c2ccc(Cl)cc2)C(Cl)Cl)cc1 [p,p′-DDD, p,p′-dichlorodiphenyldichloroethane]
Exposure level from which detected in hair [1]: 40 µg/kg per day
Slope (linear fit), concentration in hair versus level of exposure [1]: 24.0
Concentration range in urine (detection) [2]: not detected
Exposure level from which detected in plasma [3]: 40 µg/kg
Slope (linear fit), concentration in plasma versus level of exposure [3]: 13.1
Slope, concentration in white hair versus pigmented hair [4]: 0.673

ClC(Cl)=C(c1ccc(Cl)cc1)c1ccc(Cl)cc1 [p,p′-DDE, p,p′-dichlorodiphenyldichloroethylene]
Slope (linear fit), concentration in hair versus level of exposure [1]: 273.5
Exposure level from which detected in urine [2]: 200 µg/kg
Slope (linear fit), concentration in plasma versus level of exposure [3]: 289
Slope, concentration in white hair versus pigmented hair [4]: 1.287

Clc1ccc(C(c2ccc(Cl)cc2)C(Cl)(Cl)Cl)cc1 [p,p′-DDT, dichlorodiphenyltrichloroethane]
Exposure level from which detected in hair [1]: 20 µg/kg per day
Slope (linear fit), concentration in hair versus level of exposure [1]: 184.7
Exposure level from which detected in urine [2]: 200 µg/kg
Slope (linear fit), concentration in plasma versus level of exposure [3]: 175
Slope, concentration in white hair versus pigmented hair [4]: 0.876

O=S1OC[C@@H]2[C@H](CO1)[C@]1(Cl)C(Cl)=C(Cl)[C@]2(Cl)C1(Cl)Cl (stereo partly drawn) [β-Endosulfan, β-endosulfan]
Slope (linear fit), concentration in hair versus level of exposure [1]: 2.71
Concentration range in urine (detection) [2]: not detected
Slope (linear fit), concentration in plasma versus level of exposure [3]: 1.50
Slope, concentration in white hair versus pigmented hair [4]: 0.965

CC1(C)C(/C=C(\Cl)C(F)(F)F)C1C(=O)OC(C#N)c1cccc(Oc2ccccc2)c1 (centres unmarked) [λ-Cyhalothrin]
Exposure level from which detected in hair [1]: 20 µg/kg
Slope (linear fit), concentration in hair versus level of exposure [1]: 5.050
Concentration in plasma relative to cypermethrin ([3]; at equal level of exposure): approximately 10 times
Concentration in plasma relative to permethrin ([3]; at equal level of exposure): approximately 100 times
Exposure level from which detected in plasma [3]: 4 µg/kg
Slope (linear fit), concentration in plasma versus level of exposure [3]: 116
Slope, concentration in white hair versus pigmented hair [4]: 1.079
